What was measured:
Format in all cases: cell-based
[1] = In vitro cytotoxicity assay in HepG2 cells, CCK-8 method; conditions: human
Procedure: In vitro cytotoxicity assay for the compounds disclosed herein was performed in HepG2 cells using the CCK-8 method. HepG2 cells (Beina Bio) in the logarithmic growth phase were collected, the concentration of cell suspension was adjusted, and then the cells were plated on a 96-well cell culture plate at 50,000 cells/well. The cells were then incubated overnight in a cell incubator (5% CO2, 37° C.), and after 80-90% cell confluence was achieved, test compounds or vehicle (DMSO) at various concentration gradients were added after medium change. The resulting mixture was incubated in the cell incubator (5% CO2, 37° C.) for 48 h. After the treatment, the medium in the plate was discarded. The plate was washed twice with PBS, added with CCK-8 working solution (Beyotime) at 100 μL per well, and then incubated at 37° C. for 1.5 h away from the light. Absorbance at OD450 nm was measured for each well on a microplate reader, and CC50 value of each compound was analyzed and calculated.

[2] = test system: A2058 (human melanoma cells); assay: A2058 cell scratch (migration) assay with LPA; conditions: 10 μM LPA, scratch area at 24 h
Procedure: The activity of the compounds disclosed herein at the cell level in vitro is evaluated by A2058 (human melanoma cells, Beina Bio, BNCC341099) cell scratch assay. The inhibitory activity of the compounds against LPAR1 can be reflected by inhibition of cell scratch healing.
After the cell confluence reached 80%, the cell culture plate was taken out and the original medium was discarded. Serum-free medium was then added, and the cells were starved overnight in an incubator (37° C., 5% CO2). The cell culture plate was then taken out, and cell scratches were made along the diameter of the wells using a 200 μL pipette tip. The cell culture plate was then added with 500 μL of serum-free medium and then shaken gently to wash away the residual cells on the scratched surface, and this was repeated twice. The medium was discarded and 500 μL of 1% FBS medium containing the compound was then added, and the mixture was incubated at 37° C. for 30 min. […] Olympus CKX53 was used to observe the scratches, and MShot image analysis system was used to take pictures and measure the scratch area at 0 h. The plate was incubated in the incubator under the conditions of 37° C. and 5% CO2. 24 h later, the scratches were observed again with Olympus CKX53, and MShot image analysis system was used to take pictures and measure the scratch area at 24 h. Cell migration inhibition rate was calculated according to the following formula: […]

[3] = target: hLPAR1 (human lysophosphatidic acid receptor 1) (Homo sapiens, UniProt Q92633); assay: FLIPR assay of intracellular calcium increase induced by activation of hLPAR1 expressed in CHO-K1 cells; conditions: CHO-K1 cells expressing hLPAR1, agonist oleoyl-L-α-lysophosphatidic acid 1 μM; read-out: LPAR1 IC50
Chain of hLPAR1 (human lysophosphatidic acid receptor 1) (Q92633 whole entry): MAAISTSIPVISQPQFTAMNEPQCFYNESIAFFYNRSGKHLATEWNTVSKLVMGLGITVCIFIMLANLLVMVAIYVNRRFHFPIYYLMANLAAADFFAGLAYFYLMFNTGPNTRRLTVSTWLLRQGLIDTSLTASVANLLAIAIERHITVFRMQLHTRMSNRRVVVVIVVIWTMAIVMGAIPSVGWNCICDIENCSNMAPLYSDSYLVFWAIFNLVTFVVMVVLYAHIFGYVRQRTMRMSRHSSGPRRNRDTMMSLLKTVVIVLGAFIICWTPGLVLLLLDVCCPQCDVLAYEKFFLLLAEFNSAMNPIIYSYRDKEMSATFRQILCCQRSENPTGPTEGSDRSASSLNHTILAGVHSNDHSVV
Procedure: The antagonist property of the compounds disclosed herein was determined using the FLIPR (fluorescence imaging plate reader) method, wherein the compounds are inhibitors for the intracellular calcium increase induced by activation of hLPAR1 (human lysophosphatidic acid receptor 1, accession No. NM_001401.4) expressed in CHO-K1 cells (Chinese hamster ovary cells K1, ATCC).
Cells at 250,000 cells/mL were seeded into a 96-well plate (25,000 cells/well) 18-24 h prior to the FLIPR experiment and then incubated overnight in a cell incubator. […] Each well was added with 75 μL of […] Fluo-4 AM fluorescent dye (Thermo, F14202) and then the cells were subjected to dye-loading incubation at 37° C. for 1.0 h. The 96-well plate was then washed once with buffer, added with a buffer containing a test compound or a vehicle at 50 μL per well and then incubated for 30 min at room temperature. […] An agonist (oleoyl-L-α-lysophosphatidic acid sodium salt (Sigma, L7260)) at a final concentration of 1 μM or a vehicle (ultrapure water) was then added at 50 μL/well, fluorescence values were measured for 2 min at 1-second intervals, and finally the output fluorescence counts were analyzed.

Compound | CC50 at 48 h [1] [µM] | Cell migration inhibition rate (%) [2] | IC50 [3] [µM]
CN(C(=O)OCc1ccccc1-c1ccc(O[C@H]2CCC[C@H](C(=O)O)C2)cc1)C1CCCC1 (racemic) [Compound 21, (+/−)-(1S,3S)-3-((2′-(((cyclopentyl(methyl)carbamoyl)oxy)methyl)-[1,1′-biphenyl]-4-yl)oxy)cyclohexane-1-carboxylate] | > 200 | C (C: 0-30%) | 0.3 to 10
CN(Cc1ccccc1)C(=O)OCc1nc2cc(O[C@H]3CCC[C@H](C(=O)O)C3)ccc2n1C (racemic) [Compound 22] | > 200 | C (C: 0-30%) | 0.3 to 10
CN(Cc1ccccc1)C(=O)OCc1nc2c(O[C@H]3CCC[C@H](C(=O)O)C3)cccc2s1 (racemic) [Compound 23, (+/−)-(1S,3S)-3-((2-(((benzyl(methyl)carbamoyl)oxy)methyl)benzo[d]thiazole-4-yl)oxy)cyclohexane-1-carboxylic Acid] | > 200 | C (C: 0-30%) | 0.3 to 10
CN(Cc1ccccc1)C(=O)OCc1c(-c2ccc(O[C@H]3CCC[C@H](C(=O)O)C3)cc2)ncn1C (racemic) [Compound 24] | > 200 | C (C: 0-30%) | 0.3 to 10
CN(C(=O)OCc1ocnc1-c1ccc(O[C@H]2CCC[C@H](C(=O)O)C2)c(C(F)(F)F)n1)C1CCCC1 (racemic) [Compound 25] | > 200 | B (B: 30-50%) | 0.3 to 10
Cc1nc(-c2ncoc2COC(=O)N(C)C2CCCC2)ccc1O[C@H]1CCC[C@H](C(=O)O)C1 (racemic) [Compound 26] | > 200 | C (C: 0-30%) | 0.3 to 10
Cc1n[nH]c(-c2ccc(O[C@H]3CCC[C@H](C(=O)O)C3)cc2)c1COC(=O)N(C)C1CCCC1 (racemic) [Compound 27] | > 200 | B (B: 30-50%) | < 0.05
Cc1snc(-c2ccc(O[C@H]3CCC[C@H](C(=O)O)C3)cc2)c1COC(=O)N(C)C1CCCC1 (racemic) [Compound 29, (+/−)-(1S,3S)-3-(4-(4-(((cyclopentyl(methyl)carbamoyl)oxy)methyl)-5-methylisothiazol-3-yl)phenoxy)cyclohexane-1-carboxylic Acid] | > 200 | B (B: 30-50%) | < 0.05
Cc1cnn(-c2ccc(O[C@H]3CCC[C@H](C(=O)O)C3)cc2)c1COC(=O)N(C)C1CCCC1 (racemic) [Compound 30, (+/−)-(1S,3S)-3-(4-(5-(((cyclopentyl(methyl)carbamoyl)oxy)methyl)-4-methyl-1H-pyrazol-1-yl)phenoxy)cyclohexanoic Acid] | > 200 | B (B: 30-50%) | < 0.05
Cc1ccn(-c2ccc(O[C@H]3CCC[C@H](C(=O)O)C3)cc2)c1COC(=O)N(C)C1CCCC1 (racemic) [Compound 31] | > 200 | B (B: 30-50%) | < 0.05
CN(C(=O)OCc1c(-c2ccc(O[C@H]3CCC[C@H](C(=O)O)C3)c(C(F)(F)F)n2)ncn1C)C1CCCC1 (racemic) [Compound 32] | > 200 | B (B: 30-50%) | 0.05 to 0.3
Cc1nc(-c2c(C(F)(F)F)nn(C)c2COC(=O)N(C)C2CCCC2)ccc1O[C@H]1CCC[C@H](C(=O)O)C1 (racemic) [Compound 33] | > 200 | B (B: 30-50%) | < 0.05
CN(C(=O)OCc1c(-c2ccc(O[C@H]3CCC[C@H](C(=O)O)C3)c(F)c2)ncn1C)C1CCCC1 (racemic) [Compound 34, (+/−)-(1S,3S)-3-(4-(5-(((cyclopentyl(methyl)carbamoyl)oxy)methyl)-1-methyl-1H-imidazol-4-yl)-2-fluorophenoxy)cyclohexane-1-carboxylic Acid] | > 200 | B (B: 30-50%) | 0.05 to 0.3
Cc1nc(-c2noc(C)c2COC(=O)N(C)C2CCCC2)ccc1O[C@H]1CCC[C@H](C(=O)O)C1 (racemic) [Compound 38] | > 200 | A (A: 50-70%) | < 0.05
Cc1nc(-c2nsc(C)c2COC(=O)N(C)C2CCCC2)ccc1O[C@H]1CCC[C@H](C(=O)O)C1 (racemic) [Compound 39] | > 200 | B (B: 30-50%) | < 0.05
Cc1nc(-c2snc(C)c2COC(=O)N(C)C2CCCC2)ccc1O[C@H]1CCC[C@H](C(=O)O)C1 (racemic) [Compound 40] | > 200 | A (A: 50-70%) | < 0.05
Cc1nc(-c2c[nH]c(C)c2COC(=O)N(C)C2CCCC2)ccc1O[C@H]1CCC[C@H](C(=O)O)C1 (racemic) [Compound 41] | > 200 | B (B: 30-50%) | < 0.05
Cc1nc(-c2coc(C)c2COC(=O)N(C)C2CCCC2)ccc1O[C@H]1CCC[C@H](C(=O)O)C1 (racemic) [Compound 42] | > 200 | A (A: 50-70%) | < 0.05
Cc1nc(-c2csc(C)c2COC(=O)N(C)C2CCCC2)ccc1O[C@H]1CCC[C@H](C(=O)O)C1 (racemic) [Compound 43] | > 200 | A (A: 50-70%) | < 0.05
Cc1c[nH]c(-c2ccc(O[C@H]3CCC[C@H](C(=O)O)C3)c(C)n2)c1COC(=O)N(C)C1CCCC1 (racemic) [Compound 44] | > 200 | B (B: 30-50%) | < 0.05
Cc1coc(-c2ccc(O[C@H]3CCC[C@H](C(=O)O)C3)c(C)n2)c1COC(=O)N(C)C1CCCC1 (racemic) [Compound 45] | > 200 | A (A: 50-70%) | < 0.05
Cc1csc(-c2ccc(O[C@H]3CCC[C@H](C(=O)O)C3)c(C)n2)c1COC(=O)N(C)C1CCCC1 (racemic) [Compound 46] | > 200 | A (A: 50-70%) | < 0.05
Cc1nc(-c2cnnc(COC(=O)N(C)C3CCCC3)c2)ccc1O[C@H]1CCC[C@H](C(=O)O)C1 (racemic) [Compound 47] | > 200 | B (B: 30-50%) | < 0.05
Cc1nnc(-c2ccc(O[C@H]3CCC[C@H](C(=O)O)C3)c(C)n2)cc1COC(=O)N(C)C1CCCC1 (racemic) [Compound 49] | > 200 | B (B: 30-50%) | < 0.05
Cc1nc(-c2ncnc(C)c2COC(=O)N(C)C2CCCC2)ccc1O[C@H]1CCC[C@H](C(=O)O)C1 (racemic) [Compound 51] | > 200 | A (A: 50-70%) | < 0.05
Cc1nc(-c2cnnc(C)c2COC(=O)N(C)C2CCCC2)ccc1O[C@H]1CCC[C@H](C(=O)O)C1 (racemic) [Compound 52] | > 200 | B (B: 30-50%) | < 0.05
Cc1nc(-c2[nH]nc(C)c2COC(=O)N(C)C2CCCC2)ccc1O[C@H]1CCC[C@H](C(=O)O)C1 (racemic) [Compound 53] | > 200 | A (A: 50-70%) | < 0.05
Cc1nc(-n2cnc(C)c2COC(=O)N(C)C2CCCC2)ccc1O[C@H]1CCC[C@H](C(=O)O)C1 (racemic) [Compound 54] | > 200 | B (B: 30-50%) | < 0.05
Cc1nc(-c2ccn(C)c2COC(=O)N(C)C2CCCC2)ccc1O[C@H]1CCC[C@H](C(=O)O)C1 (racemic) [Compound 55] | > 200 | A (A: 50-70%) | < 0.05

From patent publication US12377083B2 (WUHAN LL SCIENCE AND TECHNOLOGY DEVELOPMENT CO., LTD., priority 2019, dated 2025)
